The values that follow come from patent publication US7977371B2, “Pyrrole derivative having ureido group and aminocarbonyl group as substituents” (Santen Pharmaceutical Co., Ltd., priority 2007, dated 2011).

Each structure is given as a SMILES string.

The assay deals with TNF-α-induced IL-6 production in normal human skin fibroblast-derived CCD-1059Sk cells. The assay is described as follows: Test for measurement of inhibitory activity against TNF-α-induced IL-6 production. The class given is cell-based. The note with it: test compound at 10 μM, TNF-α stimulation 16 hours, inhibition ratio of 100% or more is indicated as 100%; for inhibition at 10 µM: Homo sapiens, CCD-1059Sk, 16 h. The method, then:
1. Test for Measurement of Inhibitory Activity Against IL-6 Production
An inhibitory effect on TNF-α-induced IL-6 production in normal human skin fibroblast-derived CCD-1059Sk cells (ATCC No. CRL-2072) was evaluated. The amount of IL-6 was determined by the homogeneous time-resolved fluorescence method using HTRF™ Human IL-6 kit (Cat. No. 62IL6PEB, manufactured by CIS-Bio international, Inc.). Specific test methods will be described below.
(Preparation of Test Compound Solution)
After a test compound was dissolved in dimethyl sulfoxide, the resulting solution was diluted with D-MEM medium containing 0.1% heat-inactivated fetal bovine serum, 0.1 mM MEM non-essential amino acid solution, 100 U/mL penicillin and 100 μg/mL streptomycin (hereinafter referred to as “medium”), whereby a 40 μM test compound solution was prepared.
(Test Method and Measurement Method)
1) CCD-1059Sk cells prepared at a density of 3×10^5 cells/mL were inoculated in a 384-well plate in an amount of 10 μL per well such that the cell density was 3×10^3 cells/well.
2). After the plate was incubated at 37° C. for several hours in a CO2 incubator, 5 μL of the test compound was added to each well.
3) After the plate was incubated at 37° C. for 1 hour in a CO2 incubator, 5 μL of a 40 ng/mL TNF-α solution was added to each well.
4) After the plate was incubated at 37° C. for 16 hours in a CO2 incubator, 10 μL of a cryptate-labeled anti-IL-6 antibody and an XL665-labeled anti-IL-6 antibody containing potassium fluoride was added to each well.
5) After the plate was incubated at room temperature for several hours, a fluorescence intensity ratio (665 nm/620 nm) was determined for each well using a multimode plate reader Analyse™ HT (manufactured by Molecular Device Corporation) and Criterion Host software version 2.00 (manufactured by Molecular Device Corporation), and then, the amount of IL-6 was calculated.
6) The same procedures as in the above 1) to 5) were performed except that 0.4% dimethyl sulfoxide was added in place of the test compound, and the obtained result was designated as the control.
7) The same procedures as in the above 1) to 5) were performed except that 0.4% dimethyl sulfoxide and the medium were added in place of the test compound and the TNF-α solution, respectively, and the obtained result was designated as the background.
(Calculation Formula of IL-6 Production Inhibition Ratio)
An IL-6 production inhibition ratio (%) was calculated from the following formula. IL-6 Production Inhibition Ratio (%)=100×{1−[(Amount of IL-6 for Test Compound)−(Amount of IL-6 for Background)/(Amount of IL-6 for Control)−(Amount of IL-6 for Background)]} (Evaluation Results)

The term inhibition denotes the change of the read-out against control, counted positive when it falls. As for `NC(=O)Nc1[nH]c(-c2ccc(Br)cc2)cc1C(N)=O` [Compound 1-1, 2-Aminocarbonylamino-5-(4-bromophenyl)pyrrole-3-carboxamide], the inhibition at 10 µM stood at 94%. As for `NC(=O)Nc1[nH]c(-c2ccccn2)cc1C(N)=O` [Compound 1-2, 2-Aminocarbonylamino-5-(pyridin-2-yl) pyrrole-3-carboxamide], the inhibition at 10 µM amounted to 85%. Same read-out and setting: in the case of `NC(=O)Nc1[nH]c(-c2ccccc2)cc1C(N)=O` [Compound 1-4, 2-Aminocarbonylamino-5-phenylpyrrole-3-carboxamide] it was 88%; in that of `NC(=O)Nc1[nH]c(-c2ccc(-c3ccccc3)cc2)cc1C(N)=O` [Compound 1-5, 2-Aminocarbonylamino-5-(4-biphenyl) pyrrole-3-carboxamide], 67%; in that of `NC(=O)Nc1[nH]c(-c2cccc([N+](=O)[O-])c2)cc1C(N)=O` [Compound 1-6, 2-Aminocarbonylamino-5-(3-nitrophenyl) pyrrole-3-carboxamide], 92%. For the molecule `Cc1ccc(-c2cc(C(N)=O)c(NC(N)=O)[nH]2)cc1` [Compound 1-11, 2-Aminocarbonylamino-5-(4-methylphenyl) pyrrole-3-carboxamide], the inhibition at 10 µM came out at 88%.

Turning to `NC(=O)Nc1[nH]c(-c2ccccc2C(F)(F)F)cc1C(N)=O` [Compound 1-13, 2-Aminocarbonylamino-5-(2-trifluoromethylphenyl)pyrrole-3-carboxamide], the inhibition at 10 µM was determined as 93%. On the same count and under the same terms, the same measure for `N#Cc1ccc(-c2cc(C(N)=O)c(NC(N)=O)[nH]2)cc1` [Compound 1-15, 2-Aminocarbonylamino-5-(4-cyanophenyl) pyrrole-3-carboxamide]: 80%; for `NC(=O)Nc1[nH]c(-c2cccs2)cc1C(N)=O` [Compound 1-16, 2-Aminocarbonylamino-5-(thiophen-2-yl) pyrrole-3-carboxamide]: 94%. On the same count and under the same terms, in the case of `COc1ccc(OC)c(-c2cc(C(N)=O)c(NC(N)=O)[nH]2)c1` [Compound 1-17, 2-Aminocarbonylamino-5-(2,5-dimethoxyphenyl) pyrrole-3-carboxamide] it was 96%; in that of `COc1ccc(F)cc1-c1cc(C(N)=O)c(NC(N)=O)[nH]1` [Compound 1-19, 2-Aminocarbonylamino-5-(5-fluoro-2-methoxyphenyl)pyrrole-3-carboxamide], 100%. Still for that read-out and setting: in the case of `Cc1c(-c2ccc(Br)cc2)[nH]c(NC(N)=O)c1C(N)=O` [Compound 1-21, 2-Aminocarbonylamino-5-(4-bromophenyl)-4-methylpyrrole-3-carboxamide] it was 88%. For `COc1ccc(Cl)cc1-c1cc(C(N)=O)c(NC(N)=O)[nH]1` [Compound 1-22, 2-Aminocarbonylamino-5-(5-chloro-2-methoxyphenyl)pyrrole-3-carboxamide], the “IL-6 production inhibition ratio” value was 100%. `COc1cc(C)c(Cl)cc1-c1cc(C(N)=O)c(NC(N)=O)[nH]1` [Compound 1-24, 2-Aminocarbonylamino-5-(5-chloro-2-methoxy-4-methylphenyl)pyrrole-3-carboxamide]: the inhibition at 10 µM is 99%. For the molecule `NC(=O)Nc1[nH]c(-c2cc(Cl)ccc2Cl)cc1C(N)=O` [Compound 1-27, 2-Aminocarbonylamino-5-(2,5-dichlorophenyl) pyrrole-3-carboxamide], the inhibition at 10 µM worked out at 100%. Still for that read-out and setting: in the case of `NC(=O)Nc1[nH]c(-c2cccc(F)c2)cc1C(N)=O` [Compound 1-28, 2-Aminocarbonylamino-5-(3-fluorophenyl) pyrrole-3-carboxamide] it was 97%. On the same count and under the same terms, the same measure for `CCOC(=O)c1ccc(-c2cc(C(N)=O)c(NC(N)=O)[nH]2)cc1` [Compound 1-30, 2-Aminocarbonylamino-5-(4-ethoxycarbonylphenyl) pyrrole-3-carboxamide]: 90%; for `NC(=O)Nc1[nH]c(-c2ccc(F)c(Cl)c2)cc1C(N)=O` [Compound 1-36, 2-Aminocarbonylamino-5-(3-chloro-4-fluorophenyl)pyrrole-3-carboxamide]: 100%. Same read-out and setting: the same measure for `COc1ccc(-c2cc(C(N)=O)c(NC(N)=O)[nH]2)cc1Cl` [Compound 1-37, 2-Aminocarbonylamino-5-(3-chloro-4-methoxyphenyl)pyrrole-3-carboxamide]: 98%; for `N#Cc1cccc(-c2cc(C(N)=O)c(NC(N)=O)[nH]2)c1` [Compound 1-39, 2-Aminocarbonylamino-5-(3-cyanophenyl) pyrrole-3-carboxamide]: 99%; for `NC(=O)Nc1[nH]c(-c2ccccc2Cl)cc1C(N)=O` [Compound 1-40, 2-Aminocarbonylamino-5-(2-chlorophenyl) pyrrole-3-carboxamide]: 99%. As for `Cc1ccc(-c2cc(C(N)=O)c(NC(N)=O)[nH]2)s1` [Compound 1-41, 2-Aminocarbonylamino-5-(5-methylthiophen-2-yl) pyrrole-3-carboxamide], the inhibition at 10 µM was 96%. Turning to `Cc1ccccc1-c1cc(C(N)=O)c(NC(N)=O)[nH]1` [Compound 1-42, 2-Aminocarbonylamino-5-(2-methylphenyl) pyrrole-3-carboxamide], the inhibition at 10 µM is 94%. Same read-out and setting: the same measure for `CSc1cccc(-c2cc(C(N)=O)c(NC(N)=O)[nH]2)c1` [Compound 1-43, 2-Aminocarbonylamino-5-(3-methylthiophenyl) pyrrole-3-carboxamide]: 88%; for `CCSc1cccc(-c2cc(C(N)=O)c(NC(N)=O)[nH]2)c1` [Compound 1-44, 2-Aminocarbonylamino-5-(3-ethylthiophenyl) pyrrole-3-carboxamide]: 92%; for `NC(=O)Nc1[nH]c(-c2ccccc2F)cc1C(N)=O` [Compound 1-45, 2-Aminocarbonylamino-5-(2-fluorophenyl) pyrrole-3-carboxamide]: 95%.

As for `NC(=O)Nc1[nH]c(-c2ccc(Cl)s2)cc1C(N)=O` [Compound 1-48, 2-Aminocarbonylamino-5-(5-chlorothiophen-2-yl)pyrrole-3-carboxamide], the inhibition at 10 µM worked out at 98%. The same measure, in the same setting: in the case of `Cc1cc(-c2cc(C(N)=O)c(NC(N)=O)[nH]2)c(C)s1` [Compound 1-51, 2-Aminocarbonylamino-5-(2,5-dimethylthiophen-3-yl)pyrrole-3-carboxamide] it was 96%. On the same count and under the same terms, in the case of `NC(=O)Nc1[nH]c(-c2cc(F)c(F)cc2F)cc1C(N)=O` [Compound 1-52, 2-Aminocarbonylamino-5-(2,4,5-trifluorophenyl) pyrrole-3-carboxamide] it was 93%. The same measure, in the same setting: in the case of `NC(=O)Nc1[nH]c(-c2cc(F)ccc2F)cc1C(N)=O` [Compound 1-53, 2-Aminocarbonylamino-5-(2,5-difluorophenyl) pyrrole-3-carboxamide] it was 94%; in that of `NC(=O)Nc1[nH]c(-c2ccccc2O)cc1C(N)=O` [Compound 3-1, 2-Aminocarbonylamino-5-(2-hydroxyphenyl)pyrrole-3-carboxamide], 95%. Regarding `NC(=O)Nc1[nH]c(-c2cc(F)ccc2O)cc1C(N)=O` [Compound 3-3, 2-Aminocarbonylamino-5-(5-fluoro-2-hydroxyphenyl)pyrrole-3-carboxamide], the inhibition at 10 µM stood at 100%. For `NC(=O)Nc1[nH]c(-c2cc(Cl)ccc2O)cc1C(N)=O` [Compound 3-4, 2-Aminocarbonylamino-5-(5-chloro-2-hydroxyphenyl)pyrrole-3-carboxamide], the inhibition at 10 µM worked out at 100%. In the case of `N#CCOc1ccccc1-c1cc(C(N)=O)c(NC(N)=O)[nH]1` [Compound 4-1, 2-Aminocarbonylamino-5-(2-cyanomethyloxyphenyl)pyrrole-3-carboxamide], the inhibition at 10 µM is 96%. On the same count and under the same terms, the same measure for `N#CCOc1cccc(-c2cc(C(N)=O)c(NC(N)=O)[nH]2)c1` [Compound 4-9, 2-Aminocarbonylamino-5-(3-cyanomethyloxyphenyl) pyrrole-3-carboxamide]: 89%; for `CCOc1ccccc1-c1cc(C(N)=O)c(NC(N)=O)[nH]1` [Compound 4-11, 2-Aminocarbonylamino-5-(2-ethoxyphenyl)pyrrole-3-carboxamide]: 97%.
